From PMC4160187 (2014)

Assays:
Test in all cases: UV-vis Soret titration (A404)
[1] = test system: r(G4C2)4 (RNA, G4) GGGGCCGGGGCCGGGGCCGGGGC; conditions: 20 mM K+; 40 mM HEPES pH 8.0, 1% DMF, 0.05% Triton X-100, 20°C; heme 0.5 µM; text also ~3 µM
[2] = test system: d(G4C2)4 (DNA, G4) GGGGCCGGGGCCGGGGCCGGGGC; conditions: 20 mM K+; 40 mM HEPES pH 8.0, 1% DMF, 0.05% Triton X-100, 20°C; heme 0.5 µM; weaker than r(G4C2)4
[3] = test system: r(C4G2)4 (RNA, other) GGCCCCGGCCCCGGCCCCGGCCCC; conditions: 20 mM K+; 40 mM HEPES pH 8.0, 1% DMF, 0.05% Triton X-100, 20°C; heme 0.5 µM; up to 20 µM RNA
[4] = test system: CatG4 (DNA, G4) TGGGTAGGGCGGGTTGGGAAA; conditions: 20 mM K+; 40 mM HEPES pH 8.0, 1% DMF, 0.05% Triton X-100, 20°C; heme 0.5 µM

KD [1]: 3.1 µM | binding [2]: yes | binding [3]: no | Kd [4]: < 0.5 µM
Compound: C=CC1=C(C)C2=Cc3c(C=C)c(C)c4[n]3[Fe]([Cl])[n]3c(c(C)c(CCC(=O)O)c3=CC3=NC(=C4)C(C)=C3CCC(=O)O)=CC1=N2
